Experimental data from patent publication US10844051B2, “Substituted oxazoles for the treatment of cancer” (THE ROYAL INSTITUTION FOR THE ADCANCEMENT OF …, priority 2015, dated 2020).
Entries after “also recorded” stand apart in the source; their conditions may differ.

Experiments:
[1] = test system: EZH2, c-Myc and ERG expression in VCaP cells; test: Expression of EZH2, c-Myc and ERG in VCaP cells; type: cell-based; conditions: 10 μM, 72 hours
Experimental: VCaP cells were exposed to DMSO vehicle control, 648, 698 and 891 at 10 μM for 72 hours in DMEM medium plus 10% FBS or phenol red-free DMEM medium plus 10% charcoal-stripped FBS (CS-FBS).

[2] = biological target: T1, ERG (Homo sapiens, UniProt P11308); test: ERG-dependent reporter assay in HEK293 cells; type: cell-based; parameters: expressed in transfected cells; host or cells: HEK293; conditions: PUx3-Luc reporter, 48 hours, designated doses
T1 sequence (P11308 1-486 isoform P11308-3): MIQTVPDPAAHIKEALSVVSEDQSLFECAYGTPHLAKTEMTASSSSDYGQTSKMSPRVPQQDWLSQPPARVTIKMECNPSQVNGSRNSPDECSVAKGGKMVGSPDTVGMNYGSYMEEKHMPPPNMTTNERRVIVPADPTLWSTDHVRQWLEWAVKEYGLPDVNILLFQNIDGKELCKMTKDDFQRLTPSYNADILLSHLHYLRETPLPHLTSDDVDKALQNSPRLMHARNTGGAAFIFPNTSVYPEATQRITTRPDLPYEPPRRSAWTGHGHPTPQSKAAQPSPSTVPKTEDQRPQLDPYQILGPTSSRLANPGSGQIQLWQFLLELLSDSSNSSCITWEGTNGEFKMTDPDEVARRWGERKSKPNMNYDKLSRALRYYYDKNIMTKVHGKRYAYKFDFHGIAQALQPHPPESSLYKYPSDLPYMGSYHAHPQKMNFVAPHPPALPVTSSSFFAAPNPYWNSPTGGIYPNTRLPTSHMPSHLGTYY
Experimental: (§1) HEK293 cells were transiently transfected with empty vector (for the NT) or ERG-expressing plasmid as well as pRL-TK (internal control) and PUx3-Luc reporter. Cells were then exposed to DMSO vehicle or compounds at designated doses for 48 hours. Experiments were done in triplicate.

[3] = biological target: T2, ETV1 (Homo sapiens, UniProt P50549); test: ETV1-dependent reporter assay in HEK293 cells; type: cell-based; conditions: 48 hours
T2 construct: expressed in transfected cells; host or cells: HEK293
T2 sequence (P50549 1-477): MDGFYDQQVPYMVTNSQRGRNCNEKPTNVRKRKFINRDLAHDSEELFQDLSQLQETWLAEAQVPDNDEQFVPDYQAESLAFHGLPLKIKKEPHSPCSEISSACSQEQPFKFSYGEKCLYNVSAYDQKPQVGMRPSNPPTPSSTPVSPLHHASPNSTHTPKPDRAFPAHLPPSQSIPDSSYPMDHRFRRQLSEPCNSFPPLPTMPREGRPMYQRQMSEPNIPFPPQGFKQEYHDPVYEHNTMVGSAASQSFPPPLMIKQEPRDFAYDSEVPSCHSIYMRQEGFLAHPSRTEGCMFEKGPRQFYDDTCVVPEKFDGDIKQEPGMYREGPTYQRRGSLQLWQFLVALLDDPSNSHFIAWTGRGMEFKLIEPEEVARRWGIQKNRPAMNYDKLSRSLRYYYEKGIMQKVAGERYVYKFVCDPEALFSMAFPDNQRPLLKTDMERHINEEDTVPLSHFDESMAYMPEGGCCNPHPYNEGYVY
Experimental: as §1
Experiments were done as described above in FIG. 1.1a) except that ERG plasmid was replaced by ETV1 plasmid.

[4] = test system: C4-2B cells; test: Matrigel invasion assay, C4-2B; type: cell-based; conditions: 48 hours
Experimental: (§2) Invasion assay was performed using (8.0 μm pore size) BD Matrigel Invasion chambers in 24-well plate (Catalog: 354480, BD Biosc.). 750 μL medium (with 20% FBS) was added into lower chamber of each well (DMEM for VCaP, RPMI 1640 for C4-2B and DU145). Next, 5×10^5 VCaP or 5×10^5 C4-2B or 1×10^4DU145 cells in 500 μL medium (with 0.5% FBS) were seeded into the upper chamber of each well. DMSO vehicle or compounds in DMSO solution were added into upper chamber to reach the designated doses. After 48 hours incubation, the invasive cells attached to the lower surface of the membrane insert were fixed in 10% formalin at room temperature for 30 minutes and stained with 0.05% crystal violet. The number of invasive cells was then counted under a microscope. Invasion experiments were performed in duplicate. ***p<0.0001 when compared with vehicle control.

[5] = test system: VCaP cells; test: Matrigel invasion assay, VCaP; type: cell-based; conditions: 48 hours
Experimental: as §2

[6] = biological target: T1, ERG; test: Surface Plasmon Resonance (SPR) analysis on amine-coupled ERG; type: binding
Experimental: Steady-state kinetics of compound 648, YK-4-279 (positive control) and bicalutamide (Bic) (negative control) over amine-coupled ERG surfaces with 50 μM injection (25 μL/min×120 sec association+120 sec dissociation). High-density ERG (6000 RU) and reference surface (no ERG) were amine-coupled to CM5 sensors using BIACORE 3000 instrumentation. YK-4-279 is a known ERG inhibitor. Bic is an antagonist of the androgen receptor.
FIG. 1.5b) Preliminary SPR data to characterize binding affinity of compound 648. Rapid on/off kinetics for compound 648 when titrated over amine-coupled ERG surfaces at 0, 10, 20, 30, 40, and 50 μM (25 μL/min×120 sec association+120 sec dissociation).

[7] = biological target: T3, ESE-1 (Homo sapiens, UniProt P78545); test: ESE-1 dependent reporter assay in HEK293 cells; type: cell-based; conditions: 48 hours
T3 construct: expressed in transfected cells; host or cells: HEK293
T3 sequence (P78545 1-371): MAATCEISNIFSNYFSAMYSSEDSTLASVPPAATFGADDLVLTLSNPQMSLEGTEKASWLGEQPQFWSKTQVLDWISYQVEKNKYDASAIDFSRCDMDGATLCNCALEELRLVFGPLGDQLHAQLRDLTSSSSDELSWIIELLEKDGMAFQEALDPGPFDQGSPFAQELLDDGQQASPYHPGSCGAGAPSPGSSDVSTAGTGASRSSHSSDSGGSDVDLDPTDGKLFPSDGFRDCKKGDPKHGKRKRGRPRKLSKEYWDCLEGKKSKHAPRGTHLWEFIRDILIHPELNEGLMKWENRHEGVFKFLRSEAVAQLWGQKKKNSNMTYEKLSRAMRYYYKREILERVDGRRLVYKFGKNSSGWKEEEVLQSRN
Experimental: as §1
Experiments were done as described above in FIG. 1.1a) except that ERG plasmid was replaced by ESE-1 plasmid.

[8] = biological target: T4, ETS-2 (Homo sapiens, UniProt P15036); test: ETS-2 dependent reporter assay in HEK293 cells; type: cell-based; conditions: 48 hours
T4 construct: expressed in transfected cells; host or cells: HEK293
Experimental: as §1
Experiments were done as described above in FIG. 1.1a) except that ERG plasmid was replaced by ETS-2 plasmid.

[9] = test system: LNCaP-pcDNA and LNCaP-GATA2 cells; test: MTT assay in LNCaP-pcDNA and LNCaP-GATA2 cells; type: cell-based; conditions: 72 hours
Experimental: Cells were exposed to DMSO vehicle or compounds for 72 hours. Vial cells were evaluated by MTT assays. Experiments were done in triplicate.

T4 sequence (P15036 whole entry, species assumed): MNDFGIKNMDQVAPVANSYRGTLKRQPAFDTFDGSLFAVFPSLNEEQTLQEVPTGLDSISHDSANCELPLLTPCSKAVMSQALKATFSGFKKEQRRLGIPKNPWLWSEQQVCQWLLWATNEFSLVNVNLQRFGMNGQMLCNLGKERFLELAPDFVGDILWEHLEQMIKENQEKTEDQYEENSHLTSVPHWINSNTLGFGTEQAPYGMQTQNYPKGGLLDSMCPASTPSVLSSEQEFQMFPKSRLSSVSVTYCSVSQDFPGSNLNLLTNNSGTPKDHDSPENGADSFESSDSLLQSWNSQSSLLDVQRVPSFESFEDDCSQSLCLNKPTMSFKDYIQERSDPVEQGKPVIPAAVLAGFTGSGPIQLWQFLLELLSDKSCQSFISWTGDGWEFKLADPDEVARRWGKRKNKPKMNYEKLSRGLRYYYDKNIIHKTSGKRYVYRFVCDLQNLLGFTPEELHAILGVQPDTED

Row | ETV1 inhibition in ETV1-dependent reporter assay [3] | direct binding with human ERG protein (SPR) ([6]; 50 μM injection, amine-coupled ERG) | KD for ERG, steady-state affinity model (SPR) ([6]; titrated at 0-50 μM, preliminary data) | ESE-1 inhibition in ESE-1 dependent reporter assay [7] | ETS-2 inhibition in ETS-2 dependent reporter assay [8] | SMILES | inhibition of expression of EZH2, c-Myc and ERG [1] | ERG inhibition in ERG-dependent reporter assay [2] | inhibition of invasion of C4-2B cells [4] | inhibition of invasion of VCaP cells [5] | cytotoxicity in LNCaP-GATA2 compared with LNCaP-pcDNA cells (MTT) [9]
1 | ETV1 inhibitors | direct binding | low micromolar | – | – | Oc1cccc(-c2nc(Cc3c[nH]c4ccccc34)oc2-c2cccc(O)c2)c1 [Compound 648] | inhibit expression of EZH2, c-Myc and ERG | potent inhibitor of ERG; also recorded: ERG inhibitors | potently inhibits invasion | potently inhibits invasion | –
2 | – | – | – | ESE-1 inhibitors | ETS-2 inhibitor | N#CC(NC(=O)c1ccccc1)SCc1ccccc1 (centres unmarked) [Compound V154] | – | ERG inhibitors | – | – | –
3 | – | – | – | – | – | CC(O)(CS(=O)(=O)c1ccc(F)cc1)C(=O)Nc1ccc(C#N)c(C(F)(F)F)c1 (centres unmarked) [bicalutamide, reference compound] | – | – | – | – | less active in LNCaP-GATA2 cells
